Measurements: patent publication US20240382483A1, “HETEROCYCLIC EGFR INHIBITORS FOR USE IN THE TREATMENT OF CANCER” (Blueprint Medicines Corporation, priority 2021, published 2024)
Where a name gives a salt, the structure may show the parent alone.

What was measured:
EGFR (L858R T790M C797S) = target: T1, EGFR (L858R T790M C797S) (Homo sapiens, UniProt P00533, C797S/L858R/T790M); experiment: Biochemical EGFR inhibition assay (Caliper mobility shift), EGFR LRTMCS; conditions: LRTMCS (PH) IC50 (nM) @ 1 mM ATP (Num), EGFR LRTMCS mutant
T1 construct: purchased SignalChem E10-122VG
T1 sequence (P00533 25-1210 T790M/C797S/L858R): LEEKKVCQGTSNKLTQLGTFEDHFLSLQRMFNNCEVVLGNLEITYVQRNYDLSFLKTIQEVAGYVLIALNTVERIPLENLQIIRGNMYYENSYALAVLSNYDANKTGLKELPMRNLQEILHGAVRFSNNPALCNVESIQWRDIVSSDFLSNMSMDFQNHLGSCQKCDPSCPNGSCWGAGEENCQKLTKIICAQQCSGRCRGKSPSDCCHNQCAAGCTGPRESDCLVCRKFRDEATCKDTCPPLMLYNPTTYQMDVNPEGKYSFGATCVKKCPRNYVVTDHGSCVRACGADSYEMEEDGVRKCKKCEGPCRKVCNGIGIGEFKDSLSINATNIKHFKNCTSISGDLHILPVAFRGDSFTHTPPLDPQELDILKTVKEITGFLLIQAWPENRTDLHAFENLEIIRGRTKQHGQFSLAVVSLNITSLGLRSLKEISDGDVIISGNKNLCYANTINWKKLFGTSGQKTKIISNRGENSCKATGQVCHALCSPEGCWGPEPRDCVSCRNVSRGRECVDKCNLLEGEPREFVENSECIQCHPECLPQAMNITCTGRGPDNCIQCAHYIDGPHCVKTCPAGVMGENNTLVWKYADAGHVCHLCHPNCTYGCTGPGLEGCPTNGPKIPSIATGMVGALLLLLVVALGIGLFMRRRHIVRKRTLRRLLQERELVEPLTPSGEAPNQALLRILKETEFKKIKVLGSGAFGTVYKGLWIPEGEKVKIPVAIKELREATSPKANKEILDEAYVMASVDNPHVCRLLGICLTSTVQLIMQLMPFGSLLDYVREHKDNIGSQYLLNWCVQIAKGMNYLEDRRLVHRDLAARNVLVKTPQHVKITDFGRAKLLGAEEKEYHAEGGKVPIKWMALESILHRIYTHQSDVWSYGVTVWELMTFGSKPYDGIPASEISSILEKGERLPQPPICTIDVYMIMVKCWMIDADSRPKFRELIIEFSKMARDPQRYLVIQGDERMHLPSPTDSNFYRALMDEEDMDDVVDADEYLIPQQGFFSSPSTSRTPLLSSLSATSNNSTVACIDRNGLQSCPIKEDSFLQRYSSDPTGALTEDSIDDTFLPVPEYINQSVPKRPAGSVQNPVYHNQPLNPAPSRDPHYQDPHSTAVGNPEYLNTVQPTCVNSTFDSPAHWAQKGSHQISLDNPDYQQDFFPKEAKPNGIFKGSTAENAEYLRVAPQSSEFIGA
Procedure, shortened: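 Apparent IC50s were derived by plotting percent activity against the log of compound concentration. Activity was measured as phosphopeptide electrophoretically separated from substrate, after reactions at room temperature reached 10% to 20% phosphorylation and were halted with 35 mM EDTA.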

[1] = target: T2, intracellular phosphorylation of EGFR in NCI-H1975 cell line that harbors the EGFR L858R T790M mutations (Homo sapiens, UniProt P00533, L858R/T790M); experiment: NCI-H1975 pEGFR AlphaLISA assay; format: cell-based; conditions: NCI-H1975 cells (EGFR L858R T790M), p-EGFR (Tyr1068), 4-5 hours incubation; read-out: Ext pEGFR H1975 GMean IC50 (nM) Protocol: @Pharmaron AlphaLISA (Num)
T2 construct: NCI-H1975 cell line that harbors the EGFR L858R T790M mutations (ATCC, CRL-5908); host or cells: NCI-H1975
T2 sequence (P00533 25-1210 T790M/L858R): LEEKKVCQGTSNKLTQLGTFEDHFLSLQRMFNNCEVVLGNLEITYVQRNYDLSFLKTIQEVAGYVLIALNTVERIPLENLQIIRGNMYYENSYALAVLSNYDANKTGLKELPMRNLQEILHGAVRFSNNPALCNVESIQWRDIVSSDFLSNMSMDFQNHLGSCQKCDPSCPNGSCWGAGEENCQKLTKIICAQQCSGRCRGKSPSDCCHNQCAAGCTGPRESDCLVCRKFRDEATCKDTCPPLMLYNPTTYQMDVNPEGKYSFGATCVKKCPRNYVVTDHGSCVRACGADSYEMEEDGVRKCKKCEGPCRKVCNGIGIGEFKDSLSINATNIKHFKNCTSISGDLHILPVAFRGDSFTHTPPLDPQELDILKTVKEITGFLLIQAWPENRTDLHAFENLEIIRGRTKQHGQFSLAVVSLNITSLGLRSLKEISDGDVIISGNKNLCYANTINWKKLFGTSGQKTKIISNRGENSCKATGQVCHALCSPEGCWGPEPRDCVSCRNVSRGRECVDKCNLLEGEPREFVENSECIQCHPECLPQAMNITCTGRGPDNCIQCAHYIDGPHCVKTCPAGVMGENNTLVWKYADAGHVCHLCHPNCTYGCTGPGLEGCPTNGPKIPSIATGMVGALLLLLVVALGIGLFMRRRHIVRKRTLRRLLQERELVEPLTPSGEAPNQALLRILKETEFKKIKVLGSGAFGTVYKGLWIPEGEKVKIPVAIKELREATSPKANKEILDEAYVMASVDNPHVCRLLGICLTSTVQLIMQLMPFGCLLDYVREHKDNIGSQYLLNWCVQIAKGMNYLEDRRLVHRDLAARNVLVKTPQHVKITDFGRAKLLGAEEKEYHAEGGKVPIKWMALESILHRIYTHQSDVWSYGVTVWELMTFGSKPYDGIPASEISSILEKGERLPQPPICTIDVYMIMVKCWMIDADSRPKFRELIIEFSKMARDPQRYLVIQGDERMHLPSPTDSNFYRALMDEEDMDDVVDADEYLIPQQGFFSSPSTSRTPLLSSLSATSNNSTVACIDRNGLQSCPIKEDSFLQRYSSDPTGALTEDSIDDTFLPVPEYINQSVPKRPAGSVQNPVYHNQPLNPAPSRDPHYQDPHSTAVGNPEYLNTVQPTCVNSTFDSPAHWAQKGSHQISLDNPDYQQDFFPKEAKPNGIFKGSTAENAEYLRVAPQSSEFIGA
Procedure: On the next day, the test compounds and DMSO control were added into H1975 cell plate followed by incubation at 37C/5% CO2 for 4-5 hours. […] Then 5 μL of a donor bead mix was added to each well followed by overnight incubation at room temperature in dark. On the next day, the plate was read at a compatible plate reader to obtain pEGFR signal. Percent of pEGFR inhibition was plotted against log concentration of compounds to generate IC50 values.

Row | SMILES | IC50 (EGFR (L858R T790M C797S)) [nM] | IC50 [1] [nM]
1 | Cc1nc(-c2cnc(C(C)C)c3cc(Nc4ccnc(N5CC[C@@H](O)[C@@](C)(F)C5)n4)ncc23)no1 [Example 8, (3S,4R)-3-fluoro-1-(4-((5-isopropyl-8-(5-methyl-1,2,4-oxadiazol-3-yl)-2,6-naphthyridin-3-yl)amino)pyrimidin-2-yl)-3-methylpiperidin-4-ol] | 20 to 30 | > 50
2 | CC(C)c1ncc(-c2ncn(C)n2)c2cnc(Nc3ccnc(N4CC[C@@H](O)[C@@](C)(F)C4)n3)cc12 [Example 6, (3S,4R)-3-fluoro-1-(4-((5-isopropyl-8-(1-methyl-1H-1,2,4-triazol-3-yl)-2,6-naphthyridin-3-yl)amino)pyrimidin-2-yl)-3-methylpiperidin-4-ol] | < 15 | > 50
3 | Cc1nc(-c2ccc(C(C)C)c3cc(Nc4ccnc(N5CC[C@@H](O)[C@@](C)(F)C5)n4)ncc23)n[nH]1 [Example 26, (3S,4R)-3-fluoro-1-(4-((5-isopropyl-8-(5-methyl-1H-1,2,4-triazol-3-yl)isoquinolin-3-yl)amino)pyrimidin-2-yl)-3-methylpiperidin-4-ol] | < 15 | 30 to 50
4 | CC(C)c1cnc(N2CC(C[S+]([O-])C(F)(F)F)C2)c2cnc(Nc3ccnc(N4CC[C@@H](O)[C@@](C)(F)C4)n3)cc12 (stereo partly drawn) [Example 100, (3S,4R)-3-fluoro-1-(4-((5-isopropyl-8-(3-(((trifluoromethyl)sulfinyl)methyl)azetidin-1-yl)-2,7-naphthyridin-3-yl)amino)pyrimidin-2-yl)-3-methylpiperidin-4-ol] | < 15 | 10 to 20
5 | CC(C)c1cnc(-c2ccn(C3COC3)n2)c2cnc(Nc3ccnc(N4CC[C@@H](O)[C@@](C)(F)C4)n3)cc12 [Example 21, (3S,4R)-3-fluoro-1-(4-((5-isopropyl-8-(1-(oxetan-3-yl)-1H-pyrazol-3-yl)-2,7-naphthyridin-3-yl)amino)pyrimidin-2-yl)-3-methylpiperidin-4-ol] | < 15 | > 50
6 | CO[C@@H]1CCN(c2nccc(Nc3cc4c(C(C)C)cnc(N5C[C@H](OCCN)[C@H]5C)c4cn3)n2)C[C@@H]1F [Example 163, 8-((2R,3S)-3-(2-aminoethoxy)-2-methylazetidin-1-yl)-N-(2-((3S,4R)-3-fluoro-4-methoxypiperidin-1-yl)pyrimidin-4-yl)-5-isopropyl-2,7-naphthyridin-3-amine] | < 15 | 20 to 30
7 | CC(C)c1nnc(N2CC[C@H]2C(F)F)c2cnc(Nc3ccnc(N4CC[C@@H](O)[C@@](C)(F)C4)n3)cc12 (single isomer, unassigned) [Example 205, (3S,4R)-1-(4-((4-((S)-2-(difluoromethyl)azetidin-1-yl)-1-isopropylpyrido[3,4-d]pyridazin-7-yl)amino)pyrimidin-2-yl)-3-fluoro-3-methylpiperidin-4-ol or (3S,4R)-1-(4-((4-((R)-2-(difluoromethyl)azetidin-1-yl)-1-isopropylpyrido[3,4-d]pyridazin-7-yl)amino)pyrimidin-2-yl)-3-fluoro-3-methylpiperidin-4-ol] | 30 to 100 | > 50
8 | [2H]C([2H])([2H])O[C@@H]1CCN(c2nccc(Nc3cc4c(C(C)C)cnc(N5C[C@H](O)[C@H]5C)c4cn3)n2)C[C@@H]1F [Example 139, (2R,3S)-1-(6-((2-((3S,4R)-3-fluoro-4-(methoxy-d3)piperidin-1-yl)pyrimidin-4-yl)amino)-4-isopropyl-2,7-naphthyridin-1-yl)-2-methylazetidin-3-ol] | < 15 | < 10
9 | CO[C@@H]1CCN(c2nccc(Nc3cc4c(C(C)C)cnc(N5C[C@H](OCCO)[C@H]5C)c4cn3)n2)C[C@@H]1F [Example 148, 2-(((2R,3S)-1-(6-((2-((3S,4R)-3-fluoro-4-methoxypiperidin-1-yl)pyrimidin-4-yl)amino)-4-isopropyl-2,7-naphthyridin-1-yl)-2-methylazetidin-3-yl)oxy)ethan-1-ol] | < 15 | < 10
10 | C[C@H](CO)c1ccc(N2CC[C@H]2C)c2cnc(Nc3ccnc(N4CC[C@@H](O)[C@@](C)(F)C4)n3)cc12 (single isomer, unassigned) [Example 158, (3S,4R)-3-fluoro-1-(4-((5-((S)-1-hydroxypropan-2-yl)-8-((R)-2-methylazetidin-1-yl)isoquinolin-3-yl)amino)pyrimidin-2-yl)-3-methylpiperidin-4-ol or (3S,4R)-3-fluoro-1-(4-((5-((R)-1-hydroxypropan-2-yl)-8-((R)-2-methylazetidin-1-yl)isoquinolin-3-yl)amino)pyrimidin-2-yl)-3-methylpiperidin-4-ol] | 15 to 20 | 30 to 50
11 | CC(=O)N1CC(Cc2ccc(C(C)C)c3cc(Nc4ccnc(N5CC[C@@H](O)[C@@](C)(F)C5)n4)ncc23)C1 [Example 2, 1-(3-((3-((2-((3S,4R)-3-fluoro-4-hydroxy-3-methylpiperidin-1-yl)pyrimidin-4-yl)amino)-5-isopropylisoquinolin-8-yl)methyl)azetidin-1-yl)ethan-1-one] | < 15 | > 50

Further lines, results first:

Row | IC50 (EGFR (L858R T790M C797S)) [nM] | IC50 [1] [nM] | SMILES
12 | < 15 | 10 to 20 | CC(C)c1cnc(N2C[C@@H](F)[C@H](F)C2)c2cnc(Nc3ccnc(N4CC[C@@H](O)[C@@](C)(F)C4)n3)cc12 (single isomer, unassigned) [Example 60, (3S,4R)-1-(4-((8-((3R,4R)-3,4-difluoropyrrolidin-1-yl)-5-isopropyl-2,7-naphthyridin-3-yl)amino)pyrimidin-2-yl)-3-fluoro-3-methylpiperidin-4-ol or (3S,4R)-1-(4-((8-((3S,4S)-3,4-difluoropyrrolidin-1-yl)-5-isopropyl-2,7-naphthyridin-3-yl)amino)pyrimidin-2-yl)-3-fluoro-3-methylpiperidin-4-ol]
13 | < 15 | 20 to 30 | C[C@H](c1cnc(N2CC[C@H]2C)c2cnc(Nc3ccnc(N4CC[C@@H](O)[C@@](C)(F)C4)n3)cc12)C1COC1 (single isomer, unassigned) [Example 176, (3S,4R)-3-fluoro-3-methyl-1-(4-((8-((R)-2-methylazetidin-1-yl)-5-((S)-1-(oxetan-3-yl)ethyl)-2,7-naphthyridin-3-yl)amino)pyrimidin-2-yl)piperidin-4-ol or (3S,4R)-3-fluoro-3-methyl-1-(4-((8-((R)-2-methylazetidin-1-yl)-5-((R)-1-(oxetan-3-yl)ethyl)-2,7-naphthyridin-3-yl)amino)pyrimidin-2-yl)piperidin-4-ol]
14 | < 15 | 20 to 30 | CC(C)c1cnc(N2CCC23COC3)c2cnc(Nc3ccnc(N4CC[C@@H](O)[C@@](C)(F)C4)n3)cc12 [Example 53, (3S,4R)-3-fluoro-1-(4-((5-isopropyl-8-(6-oxa-1-azaspiro[3.3]heptan-1-yl)-2,7-naphthyridin-3-yl)amino)pyrimidin-2-yl)-3-methylpiperidin-4-ol]
15 | 20 to 30 | 10 to 20 | CC(C)c1cnc(N2C[C@H](OC(F)F)[C@H]2C)c2cnc(Nc3ccnc(N4CC[C@@H](O)[C@@](C)(F)C4)n3)cc12 [Example 109, (3S,4R)-1-(4-((8-((2R,3S)-3-(difluoromethoxy)-2-methylazetidin-1-yl)-5-isopropyl-2,7-naphthyridin-3-yl)amino)pyrimidin-2-yl)-3-fluoro-3-methylpiperidin-4-ol]
16 | < 15 | 10 to 20 | CC(C)c1cnc(N2CC3(CCS3(=O)=O)C2)c2cnc(Nc3ccnc(N4C[C@@H](F)[C@@H](O)C(C)(C)C4)n3)cc12 (single isomer, unassigned) [Example 132, 6-(6-((2-((4S,5R)-5-fluoro-4-hydroxy-3,3-dimethylpiperidin-1-yl)pyrimidin-4-yl)amino)-4-isopropyl-2,7-naphthyridin-1-yl)-1-thia-6-azaspiro[3.3]heptane 1,1-dioxide or 6-(6-((2-((4R,5S)-5-fluoro-4-hydroxy-3,3-dimethylpiperidin-1-yl)pyrimidin-4-yl)amino)-4-isopropyl-2,7-naphthyridin-1-yl)-1-thia-6-azaspiro[3.3]heptane 1,1-dioxide]
17 | < 15 | 30 to 50 | CC(C)c1cnc(N2CCC23CN(C)C3)c2cnc(Nc3ccnc(N4CC[C@@H](O)[C@@](C)(F)C4)n3)cc12 [Example 192, (3S,4R)-3-fluoro-1-(4-((5-isopropyl-8-(6-methyl-1,6-diazaspiro[3.3]heptan-1-yl)-2,7-naphthyridin-3-yl)amino)pyrimidin-2-yl)-3-methylpiperidin-4-ol trifluoroacetate]
18 | < 15 | > 50 | CC(C)c1cnc(N2CCC23CN(C)C3)c2cnc(Nc3ccnc(N4CC[C@@]5(CCO5)C(F)(F)C4)n3)cc12 (single isomer, unassigned) [Example 194, (R)—N-(2-(5,5-difluoro-1-oxa-7-azaspiro[3.5]nonan-7-yl)pyrimidin-4-yl)-5-isopropyl-8-(6-methyl-1,6-diazaspiro[3.3]heptan-1-yl)-2,7-naphthyridin-3-amine or (S)—N-(2-(5,5-difluoro-1-oxa-7-azaspiro[3.5]nonan-7-yl)pyrimidin-4-yl)-5-isopropyl-8-(6-methyl-1,6-diazaspiro[3.3]heptan-1-yl)-2,7-naphthyridin-3-amine]
